# Data: the supplement of paper PMC11208160
# Experiment: recombinant UMI read abundance after kanamycin selection (control-corrected) (log10(CPM+1)); higher = more efficient recombination; extreme values may be limits of the assay; sequences stand for … in AGTGCAGAGAAAATCGGCCAGTTTTCTCTGCCTGCAGTCCGCATGCCGTGGGACCCCTTGGGTTCTAACCTGTTGCCTAGATTTATGCAGCGGACTGCCTTTCTCCCAAAGTGATAAACCGG…AGGTTGGTTTCACT; site = the 11-nt donor
# Procedure: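 Pooled E. coli donor-specificity screen for the IS621 bridge recombinase. Each library member carries a reprogrammed 11-nt donor and a full-length LE bridge RNA expressed in cis from the natural promoter, with a paired donor-binding loop (8-nt LDG + 4-nt RDG) and a target-binding loop fixed to T5. It is co-electroporated with a T5 target plasmid; recombinase is induced with 0.07 mM IPTG and recombinants are selected on kanamycin. UMIs are counted as CPM, averaged over two biological replicates and corrected by the unselected control. Molecule = full bridge RNA written as DNA, built from the T5 scaffold: LDG = donor specificity nt 1-8, RDG = reverse complement of nt 8-11.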
# 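Further: IS621 bridge recombinase in Escherichia coli cells against a fixed T5 target plasmid.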
row,Sequence,recombinant UMI read abundance (log10)
1,ACAGTATCATGGACCGGTTTTCCCGGTAATCCGTATTTGCG (site ACAGTATCTGG),2.14
2,ACAGTATCATGGACCGGTTTTCCCGGTAATCCGTATTTGCG (site ACAGTATCTTG),2.57
3,ACAGTATCATGGACCGGTTTTCCCGGTAATCCGTATTTGTG (site ACAGTATCTCA),3.03
4,ACAGTATCATGGACCGGTTTTCCCGGTAATCCGTATTTGTG (site ACAGTATCTTG),1.03
5,ACATAAGCATGGACCGGTTTTCCCGGTAATCCGTATTTGAA (site ACATAAGCTTT),2.7
6,ACATATACATGGACCGGTTTTCCCGGTAATCCGTATTTGTG (site ACATATACTCA),1.81
7,ACATATACATGGACCGGTTTTCCCGGTAATCCGTATTTGTG (site ACATCTACTCA),0.0121
8,ACATATACATGGACCGGTTTTCCCGGTAATCCGTATTTGTG (site ACATGTACTCA),0.021
9,ACATATACATGGACCGGTTTTCCCGGTAATCCGTATTTGTG (site ACATTTACTCA),0.0115
10,ACATCCACATGGACCGGTTTTCCCGGTAATCCGTATTTGTG (site ACATCAACTCA),0.0218
11,ACATCCACATGGACCGGTTTTCCCGGTAATCCGTATTTGTG (site ACATCCACTCA),0.309
12,ACATCCACATGGACCGGTTTTCCCGGTAATCCGTATTTGTG (site ACATCGACTCA),0.00941
13,ACATCCACATGGACCGGTTTTCCCGGTAATCCGTATTTGTG (site ACATCTACTCA),0.0155
14,ACATCTACATGGACCGGTTTTCCCGGTAATCCGTATTTGCG (site ACATCTACTCA),0.195
15,ACATCTACATGGACCGGTTTTCCCGGTAATCCGTATTTGCG (site ACATCTACTCC),0.0147
16,ACATCTACATGGACCGGTTTTCCCGGTAATCCGTATTTGCG (site ACATCTACTCG),1.2
17,ACATCTACATGGACCGGTTTTCCCGGTAATCCGTATTTGCG (site ACATCTACTCT),0.353
18,ACATCTACATGGACCGGTTTTCCCGGTAATCCGTATTTGGG (site ACATCTACTCA),0.0151
19,ACATCTACATGGACCGGTTTTCCCGGTAATCCGTATTTGGG (site ACATCTACTCC),0.54
20,ACATCTACATGGACCGGTTTTCCCGGTAATCCGTATTTGGG (site ACATCTACTCG),0.00576
21,ACATCTACATGGACCGGTTTTCCCGGTAATCCGTATTTGGG (site ACATCTACTCT),0.0169
22,ACATCTACATGGACCGGTTTTCCCGGTAATCCGTATTTGTG (site AAATCTACTCA),0.00563

row,Sequence,recombinant UMI read abundance (log10)
1,ACATCTACATGGACCGGTTTTCCCGGTAATCCGTATTTGTG (site ACAACTACTCA),0.00896
2,ACATCTACATGGACCGGTTTTCCCGGTAATCCGTATTTGTG (site ACACCTACTCA),0.00963
3,ACATCTACATGGACCGGTTTTCCCGGTAATCCGTATTTGTG (site ACAGCTACTCA),0.0992
4,ACATCTACATGGACCGGTTTTCCCGGTAATCCGTATTTGTG (site ACATATACTCA),0.324
5,ACATCTACATGGACCGGTTTTCCCGGTAATCCGTATTTGTG (site ACATCAACTCA),0.0141
6,ACATCTACATGGACCGGTTTTCCCGGTAATCCGTATTTGTG (site ACATCCACTCA),0.0072
7,ACATCTACATGGACCGGTTTTCCCGGTAATCCGTATTTGTG (site ACATCGACTCA),0.0136
8,ACATCTACATGGACCGGTTTTCCCGGTAATCCGTATTTGTG (site ACATCTACTAA),0.044
9,ACATCTACATGGACCGGTTTTCCCGGTAATCCGTATTTGTG (site ACATCTACTCA),0.552
10,ACATCTACATGGACCGGTTTTCCCGGTAATCCGTATTTGTG (site ACATCTACTCC),0.0178
11,ACATCTACATGGACCGGTTTTCCCGGTAATCCGTATTTGTG (site ACATCTACTCG),0.279
12,ACATCTACATGGACCGGTTTTCCCGGTAATCCGTATTTGTG (site ACATCTACTCT),0.188
13,ACATCTACATGGACCGGTTTTCCCGGTAATCCGTATTTGTG (site ACATCTACTGA),0
14,ACATCTACATGGACCGGTTTTCCCGGTAATCCGTATTTGTG (site ACATCTACTTA),0
15,ACATCTACATGGACCGGTTTTCCCGGTAATCCGTATTTGTG (site ACATCTCCTCA),0.0291
16,ACATCTACATGGACCGGTTTTCCCGGTAATCCGTATTTGTG (site ACATCTGCTCA),0.0534
17,ACATCTACATGGACCGGTTTTCCCGGTAATCCGTATTTGTG (site ACATCTTCTCA),0.234
18,ACATCTACATGGACCGGTTTTCCCGGTAATCCGTATTTGTG (site ACATGTACTCA),0.023
19,ACATCTACATGGACCGGTTTTCCCGGTAATCCGTATTTGTG (site ACATTTACTCA),0.319
20,ACATCTACATGGACCGGTTTTCCCGGTAATCCGTATTTGTG (site ACCTCTACTCA),0.0111
21,ACATCTACATGGACCGGTTTTCCCGGTAATCCGTATTTGTG (site ACGTCTACTCA),0.0191
22,ACATCTACATGGACCGGTTTTCCCGGTAATCCGTATTTGTG (site ACTTCTACTCA),0.371

row,Sequence,recombinant UMI read abundance (log10)
1,ACATCTACATGGACCGGTTTTCCCGGTAATCCGTATTTGTG (site AGATCTACTCA),0.00667
2,ACATCTACATGGACCGGTTTTCCCGGTAATCCGTATTTGTG (site ATATCTACTCA),0.245
3,ACATCTACATGGACCGGTTTTCCCGGTAATCCGTATTTGTG (site CCATCTACTCA),0.465
4,ACATCTACATGGACCGGTTTTCCCGGTAATCCGTATTTGTG (site GCATCTACTCA),0.305
5,ACATCTACATGGACCGGTTTTCCCGGTAATCCGTATTTGTG (site TCATCTACTCA),0.0183
6,ACATGGTCATGGACCGGTTTTCCCGGTAATCCGTATTTGTC (site ACATGGTCTGA),1.81
7,ACATTACCATGGACCGGTTTTCCCGGTAATCCGTATTTGCA (site ACAGTATCTTG),1.21
8,ACATTACCATGGACCGGTTTTCCCGGTAATCCGTATTTGCA (site ACATTACCTTG),0
9,ACATTATCATGGACCGGTTTTCCCGGTAATCCGTATTTGCC (site ACAGTATCTTG),0
10,ACATTATCATGGACCGGTTTTCCCGGTAATCCGTATTTGCC (site ACATTATCTGG),2.56
11,ACATTGACATGGACCGGTTTTCCCGGTAATCCGTATTTGCC (site ACATTGACTGG),2
12,ACCACCGCATGGACCGGTTTTCCCGGTAATCCGTATTTGCG (site ACCACCGCTCG),0.455
13,ACCACCGCATGGACCGGTTTTCCCGGTAATCCGTATTTGCG (site CCCACCGCTCG),0.221
14,ACCACCGCATGGACCGGTTTTCCCGGTAATCCGTATTTGCG (site GCCACCGCTCG),0
15,ACCACCGCATGGACCGGTTTTCCCGGTAATCCGTATTTGCG (site TCCACCGCTCG),0.0102
16,ACCACTCCATGGACCGGTTTTCCCGGTAATCCGTATTTGTA (site ACCACTCCTTA),0.852
17,ACCAGCCCATGGACCGGTTTTCCCGGTAATCCGTATTTGAT (site ACCAGCCCTAT),0.0092
18,ACCCAGACATGGACCGGTTTTCCCGGTAATCCGTATTTGGG (site ACCAAGACTCC),0.0107
19,ACCCAGACATGGACCGGTTTTCCCGGTAATCCGTATTTGGG (site ACCCAGACTCC),0.036
20,ACCCAGACATGGACCGGTTTTCCCGGTAATCCGTATTTGGG (site ACCGAGACTCC),0.00445
21,ACCCAGACATGGACCGGTTTTCCCGGTAATCCGTATTTGGG (site ACCTAGACTCC),0.00599
